According to PMC10744608, “Simplified Synthesis of Renieramycin T Derivatives to Target Cancer Stem Cells via β-Catenin Proteasomal Degradation in Human Lung Cancer” (Marine Drugs, 2023):

Columns and labels:
Format in all cases: cell-based, human
A549 cells = test: MTT cell viability assay; settings: Homo sapiens, A549, 24 h treatment
Experimental: (§1) The cell viability was assessed using an MTT assay, determining the half-maximal inhibitory concentration (IC50) to screen right-half RT analogs (DH_18, DH_21, DH_32, DH_35, DH_38, and DH_39). Human NSCLC cells (A549, H23, and H292) were seeded in a 96-well cell culture plate at a density of 1 × 10^4 cells per well and incubated for 24 h at 37 °C. Subsequently, the culture medium was aspirated, and a complete medium with varying concentrations (0–100 μM) of right-half RT analogs was added for 24 h. Following the removal of the compound-containing medium, an MTT reagent at a concentration of 4 mg/mL was applied and incubated for 3 h at 37 °C. The MTT reagent was replaced with 100 μL of DMSO to dissolve the formazan crystals. The measurement of the formazan product was conducted at 570 nm utilizing a microplate reader. RT served as the positive control in this experiment.

H292 cells = test: MTT cell viability assay; settings: Homo sapiens, NCI-H292, H292, 24 h treatment
Experimental: as §1

H23 cells = test: MTT cell viability assay; settings: Homo sapiens, NCI-H23, H23, 24 h treatment
Experimental: as §1

[1] = system: NSCLC cells (A549, H23, and H292); test: MTT cell viability assay, statements over all lung cancer lines; settings: summary over A549, H23 and H292, 24 h
Experimental: as §1

[2] = system: CSC spheroids of A549, H23, and H292 cells; test: 3D CSC spheroid formation with immunofluorescence; settings: 50 nM, 24 h, immunofluorescence
Experimental: A three-dimensional (3D) spheroid was employed to generate the spheroids containing CSC subpopulations from lung cancer cells. For CSC-rich population establishment, the spheroid culture assay used in this study was slightly modified from a previously described method. Lung cancer cells, specifically NSCLC cells (A549, H23, and H292), were seeded onto a 24-well ultra-low attachment plate, with approximately density of 2.5 × 10^3 cells per well in a medium with a 1% FBS and Nutristem mix. The primary spheroids were allowed to form for 7 days. Every 2 days, fresh medium with 1% FBS and Nutristem mix was replenished. On day 7 of primary spheroid culture, primary spheroids were resuspended into single cells using trypsin, and again 2.5 × 10^3 cells/well were seeded into a 24-well ultra-low attachment plate. Secondary spheroids were allowed to form for 10 days. After 10 days, the secondary spheroids were treated with 50 nM concentration DH_32 for 24 h treatment. The spheroids that had undergone treatment were retrieved through centrifugation at 1000× g for 30 s and then rinsed with PBS. The spheroids were fixed with 4% paraformaldehyde in a 50 μL PBS solution for 20 min at room temperature, and then they were made permeable by treating them with 0.1% Triton X in PBS for 5 min at room temperature. The spheroids were exposed to a mixture of 5% FBS and 2% BSA in PBS for 1 h at room temperature to prevent non-specific protein interactions. Subsequently, the spheroids were incubated with primary antibodies (CD133, CD44, and OCT4) at a 1:250 dilution in a 30 μL PBS solution containing 2.5% FBS and 1% BSA, and this incubation took place overnight at 4 °C. On the subsequent day, the spheroids were rinsed with PBS and then exposed to secondary antibodies (Alexa Fluor 594-conjugated goat anti-rabbit IgG (H+L) and Alexa Fluor 488-conjugated goat anti-mouse IgG (H+L)) at a 1:500 dilution in a 30 μL PBS solution containing 2.5% FBS and 1% BSA at room temperature for 1 h 30 min. These spheroids were subjected to staining with Hoechst 33342 (Sigma, St. Louis, MO, USA) at a concentration of 10 μg/mL for a duration of 15 min at room temperature. Subsequently, the fluorescence signals were observed using a fluorescence microscope (Olympus IX 51 with DP70; Olympus America Inc., Center Valley, PA, USA). The intensity of fluorescence was quantified using Image J software. NSCLC spheroids treated with RT at 50 nM and cisplatin at 50 nM served as the positive control.

Row | Compound | IC50 (A549 cells) [µM] | IC50 (H292 cells) [µM] | IC50 (H23 cells) [µM] | IC50 ([1]; Homo sapiens, 24 h) [µM] | IC50 [1] [µM] | levels of CD133, CD44, and OCT4 in CSC spheroids [2]
1 | C#CCN1C[C@H]2C3=C(C[C@@H]([C@@H]1C#N)N2C)C(=O)C(C)=C(OC)C3=O [DH_35, (1R,4R,5S)-9-methoxy-8,11-dimethyl-7,10-dioxo-3-(prop-2-yn-1-yl)-1,2,3,4,5,6,7,10-octahydro-1,5-epiminobenzo[d]azocine-4-carbonitrile] | 76.3 ± 2.98 | 57.7 ± 1.45 | 56 ± 1.78 | 28 to 77 | – | –
2 | COC1=C(C)C(=O)C2=C(C1=O)[C@@H]1CN(Cc3ccccn3)[C@@H](C#N)[C@H](C2)N1C [DH_18, (1R,4R,5S)-9-methoxy-8,11-dimethyl-7,10-dioxo-3-(pyridin-2-ylmethyl)-1,2,3,4,5,6,7,10-octahydro-1,5-epiminobenzo[d]azocine-4-carbonitrile] | 28 ± 0.86 | 29.5 ± 0.75 | 28.1 ± 0.83 | 28 to 77 | ~30 | –
3 | COC1=C(C)C(=O)C2=C(C1=O)[C@@H]1CN(CCO)[C@@H](C#N)[C@H](C2)N1C [DH_38, (1R,4R,5S)-3-(2-hydroxyethyl)-9-methoxy-8,11-dimethyl-7,10-dioxo-1,2,3,4,5,6,7,10-octahydro-1,5-epiminobenzo[d]azocine-4-carbonitrile] | 43.8 ± 1.43 | 43.7 ± 0.86 | 50.4 ± 1.18 | 28 to 77 | – | –
4 | N.N.[Cl][Pt][Cl] [cisplatin, reference compound] | – | – | – | – | – | could not alter CSC markers
5 | COC1=C(C)C(=O)C2=C(C1=O)[C@@H]1CN(CCN3C(=O)c4ccccc4C3=O)[C@@H](C#N)[C@H](C2)N1C [DH_39, (1R,4R,5S)-3-(2-{1,3-dioxoisoindolin-2-yl}ethyl)-9-methoxy-8,11-dimethyl-7,10-dioxo-1,2,3,4,5,6,7,10-octahydro-1,5-epiminobenzo[d]azocine-4-carbonitrile] | 70 ± 0.85 | 65.4 ± 1.13 | 73.3 ± 1.17 | 28 to 77 | – | –
6 | COC1=C(C)C(=O)C2=C(C1=O)[C@@H]1CN(Cc3cccnc3)[C@@H](C#N)[C@H](C2)N1C [DH_21, (1R,4R,5S)-9-methoxy-8,11-dimethyl-7,10-dioxo-3-(pyridin-3-ylmethyl)-1,2,3,4,5,6,7,10-octahydro-1,5-epiminobenzo[d]azocine-4-carbonitrile] | 51.4 ± 1.5 | 54.1 ± 1.15 | 49.4 ± 1.01 | 28 to 77 | – | –
